From EP4570800A1, “CRYSTAL FORM OF PYRIDINOPYRIMIDINONE COMPOUND, ACID SALT THEREOF, CRYSTAL FORM OF ACID SALT THEREOF, AND USE” (Wuhan Humanwell Innovative Drug Research and Development …, priority 2022, dated 2024) come the findings set out here.

Each structure is given as a SMILES string. Read-outs that look alike come from different tables or passages of the source.

Series [1] deals with ERK phosphorylation level in DLD-1 cells. The series can be described thus: Inhibition of ERK phosphorylation level in DLD-1 cells (intracellular western blot). The format is cell-based. The settings on record: Homo sapiens. As for the experimental part:
Intracellular western blot quantitative analysis was used to detect the inhibitory level of compounds on ERK phosphorylation in DLD-1 cells.
DLD-1 cells (ATCC, CCL-221) were seeded in a T75 culture flask at 2.5 × 10^6 cells/flask, and cultured in a RPMI 1640 medium containing 10% FBS for 2 days. On day 3, the cells were seeded on a 384-well plate, and cultured overnight at 37°C, 5% CO2. After overnight culture, the plate was added with serially diluted compounds (the final content of DMSO was 0.5%), the negative group was added with DMSO, and incubated in a 37°C, 5% CO2 incubator.
The cells were fixed, washed once with PBS, treated to disrupt membranes, and blocked at room temperature for 1 h. The blocking solution was removed. The plate was added with primary antibody (CST, Cat. No. #4370S), and incubated overnight at 4°C. The plate was washed 3 times with PBST (PBS solution added with 0.05% Tween-20), and soaked for 2 min each time. The plate was added with secondary antibody (LI-COR, Cat. No. 926-32211), and incubated at room temperature in the dark. The plate was washed 3 times with PBST, and soaked for 2 min each time. The plate was centrifuged at 1000 rpm for 1 min, scanned on a two-color infrared laser imaging system (Odyssey® CLX) to read the signal. Relative signal = 800-channel signal values/700-channel signal values. […]
(§1) IC50 values were calculated using Graphpad 5 software.
For orientation: In western blotting, separated proteins are transferred to a membrane and probed.

The subject of another series is H358 cells. The series can be described thus: Inhibition of 3D cell proliferation (3D CellTiter-Glo). Type of series: cell-based. The procedure:
H358 cells were seeded in a T75 culture flask, and cultured in a RPMI 1640 medium containing 10% FBS for 2 days for subsequent experiments in which the cells would be cultured or seeded on a 384-well plate.
On day 1, the cells were seeded on the 384-well plate, with 40 µL of medium added per well and serially diluted compounds or DMSO added per well, and an additional well without seeded cells but with medium was set up as a blank control. After culture at 37°C, 5% CO2 for 7 days, the plate was added with 3D CellTiter-Glo reagent (Promega, Cat. No. G9683) on day 8, shaken at 320 rpm for 20 min, and left at room temperature for 2 h. Luminescence signals were read on a multifunctional microplate reader. Cell viability inhibition rate was calculated as: [formula]
as §1
In general terms: ATP-based viability assays read luminescence as a measure of living cells.

A further series concerns the target T1, CYP3A4 (Homo sapiens, UniProt P08684).
T1 construct: A human liver microsome solution at a concentration of 0.2 mg/mL was prepared; from tissue; host or cells: human liver microsomes
The series can be described thus: Cytochrome P450 inhibition test (CYP3A4, substrates midazolam and testosterone). The format is in vitro ADME. To be noted: compound 10 µM, human liver microsomes. On the technique in general: Liver microsomes are a subcellular fraction often used to study metabolism.

Series [2] is described as follows: Plasma protein binding rate by equilibrium dialysis. The format is in vitro ADME. The settings on record: compound 1 µM, equilibrium dialysis 37°C. As for the experimental part: Plasma protein binding rate of compounds was detected by equilibrium dialysis (HTDialysis, HTD 96b). The compound was prepared into a […] stock solution with DMSO, and then 25-fold diluted with 0.05 M sodium phosphate buffer as a working solution. A blank 96-well plate was taken and preloaded with 380 µL of plasma per well. The plasma was then added with the working solution at 20 µL/well and mixed well, with the compound at a final concentration of 1 µM, containing 0.2% DMSO per well.
100 µL of 0.05 M sodium phosphate buffer was added to the receiver-side of each dialysis chamber (HTD 96b), and then 100 µL of plasma containing the compound was added to the supply-side. The dialysis chamber was covered with a plastic lid, shaken, and incubated at 37°C for 5 h.
After incubation, 25 µL of sample was taken from each of the supply-side and the receiver-side of the dialysis chamber, and placed in the blank 96-well plate. An equal volume of plasma was added to each of the supply-side samples while an equal volume of 0.05 M sodium phosphate buffer was added to each of the receiver-side samples, and mixed well. […]
Plasma protein binding rate and free fraction were calculated using the following formulas: % binding rate = 100 × ([supply-side concentration]5h - [receiver-side concentration]5h)/[supply-side concentration]5h. % free fraction = 100 - % binding rate

Series [3] is described as follows: Mouse pharmacokinetic test (oral gavage). The format is in vivo. The settings on record: plasma, male ICR mice, oral administration by gavage, 10 mg/kg. As for the experimental part:
Male ICR mice (20 to 25 g) were used, and fasted overnight. Three mice were taken and orally administered by gavage (10 mg/kg). Blood was collected before the administration, and at 15 min, 30 min, 1 h, 2 h, 4 h, 8 h, and 24 h after the administration. 6,800 g of the blood samples were centrifuged at 2 to 8°C for 6 min, and plasma was collected and stored at -80°C. The plasma at each time point was taken and added with an acetonitrile solution containing internal standard in 3 to 5 times the amount, vortexed and mixed for 1 min, and centrifuged at 13,000 rpm/min at 4°C for 10 min. The supernatant was collected, added with water in 3 times the amount, and mixed. An appropriate amount of the mixture was taken for LC-MS/MS analysis. The main pharmacokinetic parameters were analyzed using WinNonlin 7.0 software with non-compartmental model.

In another series the test system is LOVO colorectal cancer. The series can be described thus: In vivo efficacy test on LOVO colorectal cancer. Also on record: species or system mice. To be noted: 50 mg/kg, BID. As for the experimental part: After one week of adaptive feeding of mice, LOVO cells in a logarithmic phase were resuspended in serum-free F12K, 5 × 10^6 LOVO cells were inoculated subcutaneously at the right flank at 100 µL per mouse, and tumor growth was observed regularly. When the tumor grew to an average volume of 150 to 200 mm^3, the mice were randomly divided into a model group and an administration group based on the tumor size and body weight. The tumor size and body weight were measured and recorded before and during the administration. After the treatment, the tumor size in the model group was compared with that in the administration group to determine the efficacy.

T1 sequence (P08684 whole entry): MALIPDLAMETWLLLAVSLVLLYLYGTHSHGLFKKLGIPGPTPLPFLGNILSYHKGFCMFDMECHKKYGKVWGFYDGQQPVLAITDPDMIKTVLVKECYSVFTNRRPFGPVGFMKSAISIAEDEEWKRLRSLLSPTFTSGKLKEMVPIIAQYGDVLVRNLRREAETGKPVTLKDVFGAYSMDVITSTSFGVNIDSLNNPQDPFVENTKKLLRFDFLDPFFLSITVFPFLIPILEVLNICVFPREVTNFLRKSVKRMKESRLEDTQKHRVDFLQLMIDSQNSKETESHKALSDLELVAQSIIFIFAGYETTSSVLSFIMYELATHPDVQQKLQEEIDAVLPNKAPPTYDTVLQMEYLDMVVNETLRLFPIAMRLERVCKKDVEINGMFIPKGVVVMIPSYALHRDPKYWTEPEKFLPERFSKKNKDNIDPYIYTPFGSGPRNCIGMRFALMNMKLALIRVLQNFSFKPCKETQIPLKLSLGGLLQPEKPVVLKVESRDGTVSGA
Procedure for CYP3A4: The inhibitory potential of compounds on cytochrome P450 (CYP450) subtype CYP3A4 (two substrates of midazolam and testosterone) was detected. First, the compound to be tested was prepared into a 10 mM stock solution in DMSO solvent, and the CYP3A4 inhibitor ketoconazole was prepared as 10 mM, 2.5 mM, and 2.5 mM stock solutions in DMSO solvent. The test compound and ketoconazole were diluted to 400-fold final concentration (compound: 10 µM, ketoconazole: 2.5 µM) with acetonitrile.
NADPH cofactor (10 mL of potassium phosphate buffer added with 66.7 mg NADPH) at 4-fold final concentration and substrates were prepared with potassium phosphate buffer (0.1 M, pH = 7.4), with CYP3A4 substrate midazolam at a final concentration of 320 µM and CYP3A4 substrate testosterone at a final concentration of 20 µM.
A human liver microsome solution at a concentration of 0.2 mg/mL was prepared with potassium phosphate buffer on ice. A solution of the compound to be tested and a control inhibitor (control compound) solution at 2-fold final concentration were prepared with the human liver microsome solution on ice. The test wells were added with 30 mL of the test compound solution and the control inhibitor solution respectively, and then added with 15 mL of the substrate for duplication. […]

As to `Cc1nc(N[C@H](C)c2cccc(S(F)(F)(F)(F)F)c2)c2cn(C3(CF)CC3)c(=O)cc2n1` [Compound of formula I, (R)-6-(1-(fluoromethyl)cyclopropyl)-2-methyl-4-((1-(3-(pentafluorosulfanyl)phenyl)ethyl)amino)pyrido[4,3-d]pyrimidin-7(6H)-one], the IC50 (usually the concentration at which inhibition is half-maximal) in series [1] turned out to be 56 nM. Also, half-maximal inhibition in the series on H358 cells (Homo sapiens, NCI-H358, 168 h, 3D cell proliferation in H358 cells, 7 days culture, 3D CellTiter-Glo) (IC50) was put at 11.5 nM. Moreover, the “inhibitory effect on the 3D proliferation of H358 cells” value in the series on H358 cells (summary statement) was “strong inhibitory effect”. In addition, the inhibition (commonly the drop in the measured response relative to a control, in per cent) at 5 min, 10 µM on CYP3A4 (pH 7.4, probe midazolam, substrate midazolam, read-out: CYP inhibition rate (%) CYP3A4 (midazolam)) worked out at 0%. The inhibition at 5 min, 10 µM on CYP3A4 (pH 7.4, probe testosterone, substrate testosterone, read-out: CYP inhibition rate (%) CYP3A4 (testosterone)) came to 0%. Moreover, the fraction unbound at 5 h, 1 µM in series [2] (human plasma, read-out: free fraction in plasma, Human (%)) turned out to be 0.017. The fraction unbound at 5 h, 1 µM in series [2] (mouse plasma, read-out: free fraction in plasma, Mouse (%)) stood at 0.011. Further, in series [3], the area under the curve AUC(0-t) – broadly, exposure summed from dosing to a finite time, without extrapolation to infinity – was 3080 ng·h/mL; the concentration peaked (Cmax) at 1440 ng/mL; the Tmax (as a rule, the time from dosing to the highest level) was 1 h; the half-life (commonly the time needed for the level to fall by half in the phase considered) is 58.2 min. In the series with LOVO colorectal cancer, the “At the end of treatment Average tumor weight” value came to 0.75 g and the “Tumor weight inhibition rate (relative to the vehicle group)” value is reported as 46%.
